Assay results published in ChEMBL document CHEMBL1697781, “Assessment of the health effects of chemicals in humans: II. Construction of an adverse effects database for QSAR modeling” (Curr Drug Discov Technol, 2004).

Key:
Conditions in all cases: human; call rule not given here
Hepatotoxicity [1] = assay: FDA HLAED, liver enzyme composite activity
Hepatotoxicity [2] = assay: FDA HLAED, serum glutamic oxaloacetic transaminase (SGOT) increase
Hepatotoxicity [3] = assay: FDA HLAED, alkaline phosphatase increase
Hepatotoxicity [4] = assay: FDA HLAED, serum glutamic pyruvic transaminase (SGPT) increase

NCC(CC(=O)O)c1ccc(Cl)cc1 (stereo not drawn) [BACLOFEN]
Composite Activity - Active (Hepatotoxicity [1]): 2 | Composite Activity - Marginal (Hepatotoxicity [1]): 0 | Composite Activity - Score (Hepatotoxicity [1]): Active | SGOT Increase - Activity Score (Hepatotoxicity [2]): Active | SGOT Increase - Index Value (Hepatotoxicity [2]): 5.4 | SGOT Increase - Number of Reports (Hepatotoxicity [2]): >= 4 | Alkaline Phosphatase Increase - Activity Score (Hepatotoxicity [3]): Active | Alkaline Phosphatase Increase - Index Value (Hepatotoxicity [3]): 5.4 | Alkaline Phosphatase Increase - Number of Reports (Hepatotoxicity [3]): >= 4

Nc1ccn([C@@H]2O[C@H](CO)[C@@H](O)[C@@H]2O)c(=O)n1 [CYTARABINE]
Composite Activity - Active (Hepatotoxicity [1]; Liver): 3 | Composite Activity - Marginal (Hepatotoxicity [1]; Liver): 0 | Composite Activity - Score (Hepatotoxicity [1]; Liver): Active | SGPT Increase - Activity Score (Hepatotoxicity [4]): Active | SGPT Increase - Index Value (Hepatotoxicity [4]): 4.1 | SGPT Increase - Number of Reports (Hepatotoxicity [4]): >= 4 | SGOT Increase - Activity Score (Hepatotoxicity [2]): Active | SGOT Increase - Index Value (Hepatotoxicity [2]): 6.1 | SGOT Increase - Number of Reports (Hepatotoxicity [2]): >= 4 | Alkaline Phosphatase Increase - Activity Score (Hepatotoxicity [3]): Active | Alkaline Phosphatase Increase - Index Value (Hepatotoxicity [3]): 4.1 | Alkaline Phosphatase Increase - Number of Reports (Hepatotoxicity [3]): >= 4

CCCCCCCCCCCCCCCCCC(=O)O.CC[C@H]1OC(=O)[C@H](C)[C@@H](O[C@H]2C[C@@](C)(OC)[C@@H](O)[C@H](C)O2)[C@H](C)[C@@H](O[C@@H]2O[C@H](C)C[C@H](N(C)C)[C@H]2OC(C)=O)[C@](C)(O)C[C@@H](C)C(=O)[C@H](C)[C@@H](O)[C@]1(C)O [ERYTHROMYCIN ACISTRATE]
Composite Activity - Active (Hepatotoxicity [1]): 3 | Composite Activity - Marginal (Hepatotoxicity [1]): 0 | Composite Activity - Score (Hepatotoxicity [1]): Active | SGPT Increase - Activity Score (Hepatotoxicity [4]): Active | SGPT Increase - Index Value (Hepatotoxicity [4]): 8.5 | SGPT Increase - Number of Reports (Hepatotoxicity [4]): >= 4 | SGOT Increase - Activity Score (Hepatotoxicity [2]): Active | SGOT Increase - Index Value (Hepatotoxicity [2]): 7.9 | SGOT Increase - Number of Reports (Hepatotoxicity [2]): >= 4 | Alkaline Phosphatase Increase - Activity Score (Hepatotoxicity [3]): Active | Alkaline Phosphatase Increase - Index Value (Hepatotoxicity [3]): 7.3 | Alkaline Phosphatase Increase - Number of Reports (Hepatotoxicity [3]): >= 4

COc1ccc2c(c1)c(CC(=O)O)c(C)n2C(=O)c1ccc(Cl)cc1 [INDOMETHACIN]
Composite Activity - Active (Hepatotoxicity [1]): 0 | Composite Activity - Marginal (Hepatotoxicity [1]): 2 | SGOT Increase - Activity Score (Hepatotoxicity [2]): Marginally Active | SGOT Increase - Index Value (Hepatotoxicity [2]): 3.8 | SGOT Increase - Number of Reports (Hepatotoxicity [2]): >= 4 | Alkaline Phosphatase Increase - Activity Score (Hepatotoxicity [3]): Marginally Active | Alkaline Phosphatase Increase - Index Value (Hepatotoxicity [3]): 3.1 | Alkaline Phosphatase Increase - Number of Reports (Hepatotoxicity [3]): >= 4

Sc1ncnc2nc[nH]c12 [MERCAPTOPURINE ANHYDROUS]
Composite Activity - Active (Hepatotoxicity [1]; Liver): 2 | Composite Activity - Marginal (Hepatotoxicity [1]; Liver): 0 | Composite Activity - Score (Hepatotoxicity [1]; Liver): Active | SGPT Increase - Activity Score (Hepatotoxicity [4]): Active | SGPT Increase - Index Value (Hepatotoxicity [4]): 5.2 | SGPT Increase - Number of Reports (Hepatotoxicity [4]): >= 4 | SGOT Increase - Activity Score (Hepatotoxicity [2]): Active | SGOT Increase - Index Value (Hepatotoxicity [2]): 4.4 | SGOT Increase - Number of Reports (Hepatotoxicity [2]): >= 4

CN(C)c1ccc(O)c2c1C[C@H]1C[C@H]3[C@H](N(C)C)C(O)=C(C(N)=O)C(=O)[C@@]3(O)C(O)=C1C2=O [MINOCYCLINE]
Composite Activity - Active (Hepatotoxicity [1]): 0 | Composite Activity - Marginal (Hepatotoxicity [1]): 2 | SGPT Increase - Activity Score (Hepatotoxicity [4]): Marginally Active | SGPT Increase - Index Value (Hepatotoxicity [4]): No Shipping Units | SGPT Increase - Number of Reports (Hepatotoxicity [4]): >= 4 | SGOT Increase - Activity Score (Hepatotoxicity [2]): Marginally Active | SGOT Increase - Index Value (Hepatotoxicity [2]): No Shipping Units | SGOT Increase - Number of Reports (Hepatotoxicity [2]): >= 4
